Test results as given in the supplement of paper PMC11061612.

How the values were obtained:
Experiment in all cases: Bliss excess, mean over the matrix (fraction); higher = more synergy
[1] = test system: 8505C (Thyroid Gland Carcinoma)
Summary of the method: (§1)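 Cell lines grown in DMEM/F12 or RPMI with 10% FBS were plated in 1536-well plates and held 24 hours at 37°C, 5% CO2 before 72 hours of exposure to two-drug dose matrices, with DMSO typically at 0.2%. CellTiter-Glo 2.0 luminescence gave viability, which was converted to inhibition. Vehicle wells were set to 0 and blank wells to 1. Combination Emax is the second-highest inhibition in the matrix, and Bliss excess is the observed combination effect minus the expected EA + EB − EA·EB, where EA and EB are the single-agent effects.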

[2] = test system: COR-L279 (Small Cell Lung Carcinoma)
Summary of the method: as §1

[3] = test system: CW-2 (Colorectal Carcinoma)
Summary of the method: as §1

[4] = test system: DMS-114 (Small Cell Lung Carcinoma)
Summary of the method: as §1

G-361 (Melanoma) = test system: G-361 (Melanoma)
Summary of the method: as §1

[5] = test system: H9 (T-Cell Non-Hodgkin's Lymphoma)
Summary of the method: as §1

[6] = test system: JHH-4 (Hepatocellular Carcinoma)
Summary of the method: as §1

[7] = test system: KU812 (Chronic Myelogenous Leukemia)
Summary of the method: as §1

[8] = test system: KY821 (Acute Myeloid Leukemia)
Summary of the method: as §1

[9] = test system: MOG-G-CCM (Low Grade Glioma)
Summary of the method: as §1

[10] = test system: NCCIT (Other Solid Carcinomas)
Summary of the method: as §1

[11] = test system: NCI-H3122 (Lung Adenocarcinoma)
Summary of the method: as §1

[12] = test system: NCI-H661 (Non-Small Cell Lung Carcinoma)
Summary of the method: as §1

[13] = test system: NCI-H929 (Plasma Cell Myeloma)
Summary of the method: as §1

[14] = test system: PC-3 (Prostate Carcinoma)
Summary of the method: as §1

RD (Rhabdomyosarcoma) = test system: RD (Rhabdomyosarcoma)
Summary of the method: as §1

[15] = test system: RPMI-8226 (Plasma Cell Myeloma)
Summary of the method: as §1

[16] = test system: SK-GT-4 (Esophageal Adenocarcinoma)
Summary of the method: as §1

[17] = test system: SU-DHL-5 (B-Cell Non-Hodgkin's Lymphoma)
Summary of the method: as §1

[18] = test system: VMRC-RCZ (Kidney Carcinoma)
Summary of the method: as §1

SMILES	Bliss excess [1]	Bliss excess [2]	Bliss excess [3]	Bliss excess [4]	Bliss excess (G-361 (Melanoma))	Bliss excess [5]	Bliss excess [6]	Bliss excess [7]	Bliss excess [8]	Bliss excess [9]	Bliss excess [10]	Bliss excess [11]	Bliss excess [12]	Bliss excess [13]	Bliss excess [14]	Bliss excess (RD (Rhabdomyosarcoma))	Bliss excess [15]	Bliss excess [16]	Bliss excess [17]	Bliss excess [18]
CN(C)CCCOc1ccc(-c2ccc3ncc4c(c3c2)n(C2CCOCC2)c(=O)n4C)cn1 [AZD0156] + C[C@@H]1COCCN1C2=NC(=NC(=C2)C3(CC3)[S@](=N)(=O)C)C4=C5C=CNC5=NC=C4 [AZD6738] (first compound max 1 µM, 7x7, partner max 10 µM)	0.0051	-0.0547	-0.0131	-0.0138	0.032	0.0525	-0.0317	-0.0299	0.0228	-0.0593	-0.0174	0.0218	0.0059	-0.0182	-0.0168	-0.0333	0.102	-0.0006	0.0265	-0.0479
C[C@@H](c1ccc2nccn2c1)n1nnc2ncc(-c3cnn(C)c3)nc21 [Savolitinib] + Cc1c2c(nn1C)CSCc1cc(n(C)n1)CSc1cc(c3ccccc3c1)OCCCc1c(C(=O)O)n(C)c3c-2c(Cl)ccc13 [AZD5991] (first compound max 1 µM, 7x7, partner max 1 µM)	-0.0324	0.0219	-0.0263	-0.0755	-0.0044	0.0005	-0.0082	0.0064	-0.0415	-0.0683	-0.0528	-0.0562	-0.0666	0.0063	-0.0402	-0.0177	-0.0125	-0.0519	-0.0269	-0.0297
CN(CCO)CC[C@H](CSc1ccccc1)Nc1ccc(S(=O)(=O)NC(=O)c2ccc(N3CCC([C@@H](O)c4ccccc4-c4ccc(Cl)cc4)CC3)cc2)cc1S(=O)(=O)C(F)(F)F [AZD4320] + C1CN(CCC1(C(=O)N[C@@H](CCO)C2=CC=C(C=C2)Cl)N)C3=NC=NC4=C3C=CN4 [Capivasertib] (first compound max 1 µM, 7x7, partner max 3 µM)	-0.155	0.0721	-0.0284	-0.0066	-0.0244	0.0026	-0.0411	0.0154	0.0157	-0.0525	0.0224	-0.0613	-0.0347	-0.0088	-0.053	-0.0764	0.0027	-0.0345	0.0065	-0.0429
CC(=O)c1c(C)c2cnc(Nc3ccc(N4CCNCC4)cn3)nc2n(C2CCCC2)c1=O [Palbociclib] + CC1(C)CCC(CN2CCN(c3ccc(C(=O)NS(=O)(=O)c4ccc(NCC5CCOCC5)c([N+](=O)[O-])c4)c(Oc4cnc5[nH]ccc5c4)c3)CC2)=C(c2ccc(Cl)cc2)C1 [Venetoclax] (first compound max 10 µM, 7x7, partner max 1 µM)	-0.0584	-0.002	0.0067	-0.0282	0.016	-0.0394	-0.0003	-0.0401	0.0485	-0.0493	-0.0412	-0.0335	-0.0593	-0.112	-0.0582	-0.0486	0.0461	-0.0437	-0.0201	-0.0479
CN(C)CCCOc1ccc(-c2ccc3ncc4c(c3c2)n(C2CCOCC2)c(=O)n4C)cn1 [AZD0156] + C=CCn1c(=O)c2cnc(Nc3ccc(N4CCN(C)CC4)cc3)nc2n1-c1cccc(C(C)(C)O)n1 [AZD1775] (first compound max 1 µM, partner max 1 µM)	-0.0492	-0.0763	-0.0106	-0.0479	-0.0556	-0.0167	-0.0065	-0.0046	-0.0505	-0.0193	0.0278	-0.0352	-0.0615	-0.0464	-0.0501	-0.0377	-0.0017	-0.0676	-0.0016	-0.0797
COc1cc2c(cc1OCCCCCOc1cc3c(cc1OC)C(=O)N1C=C(C)C[C@H]1C=N3)N=C[C@@H]1CC(C)=CN1C2=O [SG3199] + O=C(c1cc(Cc2n[nH]c(=O)c3ccccc23)ccc1F)N1CCN(C(=O)C2CC2)CC1 [Olaparib] (first compound max 0.001 µM, 7x7, partner max 10 µM)	-0.0031	-0.0351	-0.0126	-0.0398	-0.0294	-0.0205	-0.0327	-0.0288	-0.0244	-0.0387	-0.0225	-0.0385	-0.0432	-0.0333	-0.0417	-0.0453	-0.0213	-0.0661	-0.027	-0.0461
CC(=O)Nc1cccc(-n2c(=O)n(C3CC3)c(=O)c3c(Nc4ccc(I)cc4F)n(C)c(=O)c(C)c32)c1 [Trametinib] + Cc1nc(-c2cn3c(n2)-c2ccc(-c4cnn(C(C)(C)C(N)=O)c4)cc2OCC3)n(C(C)C)n1 [Taselisib] (first compound max 1 µM, 7x7, partner max 10 µM)	0.142	-0.0486	0.122	0.079	0.0078	0.0402	0.0462	0.111	-0.0601	0.0182	0.0184	0.116	0.115	0.0401	-0.0138	0.261	0.25	0.103	0.0452	0.0186
Cn1cnc2c(F)c(Nc3ccc(Br)cc3Cl)c(C(=O)NOCCO)cc21 [Selumetinib] + CCN(CCO)CCCOc1ccc2c(Nc3cc(CC(=O)Nc4cccc(F)c4)[nH]n3)ncnc2c1 [AZD2811] (first compound max 10 µM, 7x7, partner max 1 µM)	-0.0546	-0.0243	-0.0142	-0.0166	0.0005	-0.0129	-0.0412	-0.0731	0.05	-0.0745	-0.0657	0.0093	-0.0645	0.01	-0.057	-0.0016	0.0053	-0.0533	0.0214	-0.0501
CN(CCO)CC[C@H](CSc1ccccc1)Nc1ccc(S(=O)(=O)NC(=O)c2ccc(N3CCC([C@@H](O)c4ccccc4-c4ccc(Cl)cc4)CC3)cc2)cc1S(=O)(=O)C(F)(F)F [AZD4320] + Cn1cnc2c(F)c(Nc3ccc(Br)cc3Cl)c(C(=O)NOCCO)cc21 [Selumetinib] (first compound max 1 µM, 7x7, partner max 3 µM)	0.0641	-0.0029	0.0454	0.0226	0.028	-0.0113	-0.0091	0.0375	0.0262	-0.136	-0.0045	0.0162	0.0414	0.0597	-0.0148	0.0308	0.0202	0.0128	0.0368	-0.0195
C=CCn1c(=O)c2cnc(Nc3ccc(N4CCN(C)CC4)cc3)nc2n1-c1cccc(C(C)(C)O)n1 [AZD1775] + C1CN(CCC1(C(=O)N[C@@H](CCO)C2=CC=C(C=C2)Cl)N)C3=NC=NC4=C3C=CN4 [Capivasertib] (first compound max 3 µM, partner max 3 µM)	-0.101	-0.0276	-0.0487	-0.0132	-0.0042	-0.0311	0.0061	-0.0326	0.0225	-0.0224	0.0254	-0.0298	-0.0905	-0.0234	-0.0617	-0.034	0.0216	-0.0802	0.0233	-0.083
CS(=O)(=O)CCNCc1ccc(-c2ccc3ncnc(Nc4ccc(OCc5cccc(F)c5)c(Cl)c4)c3c2)o1 [Lapatinib] + C[C@@H](Oc1cc(-c2cnn(C3CCNCC3)c2)cnc1N)c1c(Cl)ccc(F)c1Cl [Crizotinib] (first compound max 10 µM, 7x7, partner max 10 µM)	-0.0441	-0.06	-0.0146	-0.017	-0.0416	-0.0249	0.0041	-0.0598	0.0312	-0.102	0.0045	0.0001	-0.0252	-0.062	-0.0174	-0.0253	-0.0127	-0.0211	-0.0186	-0.0291
CCN(CCO)CCCOc1ccc2c(Nc3cc(CC(=O)Nc4cccc(F)c4)[nH]n3)ncnc2c1 [AZD2811] + C[C@@H]1COCCN1C2=NC(=NC(=C2)C3(CC3)[S@](=N)(=O)C)C4=C5C=CNC5=NC=C4 [AZD6738] (first compound max 1 µM, 7x7, partner max 10 µM)	-0.0514	0.0322	-0.0116	-0.0301	-0.0875	-0.0673	-0.0341	-0.0764	0.105	-0.0116	-0.0506	-0.063	-0.0567	-0.0341	-0.061	-0.0325	-0.0178	-0.0183	-0.0382	-0.085
Cc1cc2ncnn2cc1Nc1ncc2c(n1)n(C1CCOCC1)c(=O)n2C [AZD7648] + CN(C)CCCOc1ccc(-c2ccc3ncc4c(c3c2)n(C2CCOCC2)c(=O)n4C)cn1 [AZD0156] (first compound max 10 µM, 7x7, partner max 1 µM)	-0.0003	-0.0044	-0.0088	-0.0268	0.0032	0.0458	0.0025	0.0197	0.0429	-0.0609	-0.0105	-0.006	0.0202	-0.0727	0.0109	-0.0142	0.0171	-0.0406	0.0272	-0.0314
CC1(C)CCC(CN2CCN(c3ccc(C(=O)NS(=O)(=O)c4ccc(NCC5CCOCC5)c([N+](=O)[O-])c4)c(Oc4cnc5[nH]ccc5c4)c3)CC2)=C(c2ccc(Cl)cc2)C1 [Venetoclax] + CN(C)CCCOc1ccc(-c2ccc3ncc4c(c3c2)n(C2CCOCC2)c(=O)n4C)cn1 [AZD0156] (first compound max 1 µM, 7x7, partner max 1 µM)	0.0155	0.0043	0.0285	-0.0436	-0.0123	-0.0035	-0.0078	-0.0404	-0.0104	-0.0198	0.0086	-0.0656	0.0037	0.0294	-0.0363	-0.0332	0.0405	-0.0544	0.0045	-0.0492
